Read-outs that look alike come from different tables or passages of the source.
Experiments:
[1] = test system: M. kansasii CNCTC My 235/80 (ATCC 12478); assay: Antimycobacterial microdilution MABA, M. kansasii; assay type: cell-based, Mycobacterium kansasii; settings: for MIC: Mycobacterium kansasii, ATCC12478, pH 6.6, read-out: M. kans. ATCC 12478 MIC, Middlebrook 7H9 with OADC, pH 6.6, MABA
[2] = test system: M. avium ssp. avium CNCTC My 80/72 (ATCC 15769); assay: Antimycobacterial microdilution MABA, M. avium; assay type: cell-based, Mycobacterium avium; settings: for MIC: Mycobacterium avium, ATCC15769, pH 6.6, read-out: M. avium ATCC 15769 MIC; for M. avium ATCC 15769 MIC: Middlebrook 7H9 with OADC, pH 6.6, MABA
[3] = test system: Staphylococcus epidermidis H 6966/08; assay: Antibacterial microdilution broth, SE; assay type: cell-based; settings: Staphylococcus epidermidis, read-out: MIC SE
[4] = test system: Staphylococcus aureus H 5996/08 methicillin resistant; assay: microbe, parasite or virus in culture; assay type: cell-based; settings: Staphylococcus aureus, MRSA, read-out: MIC MRSA
[5] = test system: Lichtheimia corymbifera 272; assay: Antifungal microdilution broth, LC; assay type: cell-based; settings: read-out: MIC LC
[6] = test system: Trichophyton interdigitale 445; assay: Antifungal microdilution broth, TI; assay type: cell-based; settings: read-out: MIC TI
[7] = test system: Candida glabrata 20/I; assay: Antifungal microdilution broth, CG; assay type: cell-based; settings: Nakaseomyces glabratus, 20/I, read-out: MIC CG
[8] = test system: Trichosporon asahii 1188; assay: Antifungal microdilution broth, TA; assay type: cell-based; settings: read-out: MIC TA
[9] = test system: Mycobacterium tuberculosis H37Rv CNCTC My 331/88 (ATCC 27294); assay: Antimycobacterial microdilution MABA, M. tuberculosis; assay type: cell-based; settings: Mycobacterium tuberculosis, read-out: Mtb H37Rv ATCC 27294 MIC, Middlebrook 7H9 with OADC growth supplement, pH = 6.6, MABA
[10] = test system: Aspergillus fumigatus 231; assay: Antifungal microdilution broth, AF; assay type: cell-based; settings: read-out: MIC AF
[11] = test system: Candida tropicalis 156; assay: Antifungal microdilution broth, CT; assay type: cell-based; settings: read-out: MIC CT
[12] = test system: Pseudomonas aeruginosa CCM 1961; assay: Antibacterial microdilution broth, PA; assay type: cell-based; settings: Pseudomonas aeruginosa, read-out: MIC PA
[13] = test system: Escherichia coli CCM 4517; assay: Antibacterial microdilution broth, EC; assay type: cell-based; settings: Escherichia coli, read-out: MIC EC
[14] = test system: Staphylococcus aureus CCM 4516/08; assay: Antibacterial microdilution broth, SA; assay type: cell-based; settings: Staphylococcus aureus
[15] = test system: Enterococcus sp. J 14365/08; assay: Antibacterial microdilution broth, EF; assay type: cell-based; settings: Enterococcus, read-out: MIC EF
[16] = test system: Candida krusei E28; assay: Antifungal microdilution broth, CK; assay type: cell-based; settings: Pichia kudriavzevii, read-out: MIC CK
[17] = test system: Mycobacterium smegmatis CCM 4622 (ATCC 607); assay: Antimycobacterial microdilution, M. smegmatis; assay type: cell-based; settings: Mycolicibacterium smegmatis, read-out: M. smeg. ATCC 607 MIC
[18] = test system: Candida albicans ATCC 44859; assay: Antifungal microdilution broth, CA; assay type: cell-based; settings: Candida albicans, read-out: MIC CA
[19] = Lichtheimia corymbifera, 272, 24 h
[20] = Lichtheimia corymbifera, 272, 48 h
[21] = Trichophyton interdigitale, 445, 72 h
[22] = Trichophyton interdigitale, 445, 120 h
[23] = Trichosporon asahii, 1188, 24 h
[24] = Trichosporon asahii, 1188, 48 h
[25] = Aspergillus fumigatus, 231, 24 h
[26] = Aspergillus fumigatus, 231, 48 h
[27] = CCM4516, 24 h, read-out: MIC SA, 24 h
[28] = CCM4516, 48 h, read-out: MIC SA, 48 h

O=C(Nc1cnccn1)c1cccc(O)c1 [Compound 1c]
192.2 to 193.7 °C: melting point
> 500 µM: MIC ([3]; H6966/08, 24 h) | MIC ([3]; H6966/08, 48 h) | MIC ([4]; 24 h) | MIC ([4]; 48 h) | MIC [5, 19] | MIC [5, 20] | MIC [6, 21] | MIC [6, 22] | MIC ([7]; 24 h) | MIC ([7]; 48 h) | MIC [8, 23] | MIC [8, 24] | MIC [10, 25] | MIC [10, 26] | MIC ([11]; Candida tropicalis, 156, 24 h) | MIC ([11]; Candida tropicalis, 156, 48 h) | MIC ([12]; CCM1961, 72 h) | MIC ([12]; CCM1961, 120 h) | MIC ([13]; CCM4517, 24 h) | MIC ([13]; CCM4517, 48 h) | MIC [14, 27] | MIC [14, 28] | MIC ([15]; SP.J14365/08, 24 h) | MIC ([15]; SP.J14365/08, 48 h) | MIC ([16]; E28, 24 h) | MIC ([16]; E28, 48 h) | MIC ([18]; ATCC44859, 24 h) | MIC ([18]; ATCC44859, 48 h)
> 100 µg/mL: MIC [1] | MIC [2] | MIC [9]
≥ 500 µg/mL: MIC [17]

O=C(Nc1cnccn1)c1ccccc1 [Compound 1a]
≥ 500 µg/mL: MIC [17]
100 µg/mL: MIC [9]
171.2 to 172 °C: melting point
500 µM: MIC ([18]; ATCC44859, 24 h)
>100 µg/mL: M. kans. ATCC 12478 MIC ([1]; Middlebrook 7H9 with OADC, pH 6.6, MABA) | M. avium ATCC 15769 MIC [2]
> 500 µM: MIC ([3]; H6966/08, 24 h) | MIC ([3]; H6966/08, 48 h) | MIC ([4]; 24 h) | MIC ([4]; 48 h) | MIC [5, 19] | MIC [5, 20] | MIC [6, 21] | MIC [6, 22] | MIC ([7]; 24 h) | MIC ([7]; 48 h) | MIC [8, 23] | MIC [8, 24] | MIC [10, 25] | MIC [10, 26] | MIC ([11]; Candida tropicalis, 156, 24 h) | MIC ([11]; Candida tropicalis, 156, 48 h) | MIC ([12]; CCM1961, 72 h) | MIC ([12]; CCM1961, 120 h) | MIC ([13]; CCM4517, 24 h) | MIC ([13]; CCM4517, 48 h) | MIC [14, 27] | MIC [14, 28] | MIC ([15]; SP.J14365/08, 24 h) | MIC ([15]; SP.J14365/08, 48 h) | MIC ([16]; E28, 24 h) | MIC ([16]; E28, 48 h) | MIC ([18]; ATCC44859, 48 h)
> 100 µg/mL: MIC [1] | MIC [2]

O=C(Nc1cnccn1)c1cccc(Cl)c1 [Compound 1k]
> 100 µg/mL: MIC [2]
147.2 to 149.4 °C: melting point
50 µg/mL: MIC [1] | MIC [9]
>100 µg/mL: M. avium ATCC 15769 MIC [2]
> 125 µM: MIC ([3]; H6966/08, 24 h) | MIC ([3]; H6966/08, 48 h) | MIC ([4]; 24 h) | MIC ([4]; 48 h) | MIC [5, 19] | MIC [5, 20] | MIC [6, 21] | MIC [6, 22] | MIC ([7]; 24 h) | MIC ([7]; 48 h) | MIC [8, 23] | MIC [8, 24] | MIC [10, 25] | MIC [10, 26] | MIC ([11]; Candida tropicalis, 156, 24 h) | MIC ([11]; Candida tropicalis, 156, 48 h) | MIC ([12]; CCM1961, 72 h) | MIC ([12]; CCM1961, 120 h) | MIC ([13]; CCM4517, 24 h) | MIC ([13]; CCM4517, 48 h) | MIC [14, 27] | MIC [14, 28] | MIC ([15]; SP.J14365/08, 24 h) | MIC ([15]; SP.J14365/08, 48 h) | MIC ([16]; E28, 24 h) | MIC ([16]; E28, 48 h) | MIC ([18]; ATCC44859, 24 h) | MIC ([18]; ATCC44859, 48 h)
≥ 500 µg/mL: MIC [17]

Source: publication PMC6225228, “Design, Synthesis and Evaluation of N-pyrazinylbenzamides as Potential Antimycobacterial Agents” (Molecules : A Journal of Synthetic Chemistry and Natural …, 2018)
